According to PMC9090415, “Discovery of small molecule inhibitors of Plasmodium falciparum apicoplast DNA polymerase” (Journal of Enzyme Inhibition and Medicinal Chemistry, 2022):

Molecular target: P. falciparum apicoplast DNA polymerase (Pf-apPOL) (Plasmodium falciparum, UniProt Q8ILY1)
Experiment: Fluorescence-based high-throughput DNA polymerase assay (molecular beacon), primary screen and dose-response
Format: biochemical
Description: The HT assay employs a molecular beacon, a stem-loop DNA template with a Cy3 dye and the Black Hole Quencher on the 3′ and 5′ ends of the DNA, respectively. Pf-apPOL concentration is based on a calculated absorptivity of ε280 = 56750 M^−1 cm^−1. Reactions were carried out at 25 °C, using Corning 3575 […] (well-volume, 20 µL). Assays testing for compound inhibition composed of reaction buffer (pH 7.9 in 50 mM potassium acetate, 20 mM Tris-acetate and 10 mM magnesium acetate), Pf-apPOL (20 nM), DNA substrate (20 nM), dNTPs (6 µM), and compound (10 µM in DMSO). The DNA and nucleotide substrates (dNTPs) were at concentrations of 20 nM and 6 µM, respectively, in the assay. Pf-apPOL was incubated in the reaction buffer with dNTPs and the compound of interest (10 µM, in the assay) at 25 °C for 10 min. The DNA substrate was then added and the reaction was allowed to proceed for 90 min at 25 °C.
Each assay plate contained 16 negative controls (no Pf-apPOL, DMSO present) and 16 positive controls (Pf-apPOL present, no DMSO). The fluorescence of each well was determined using a BioTek Synergy Neo fluorescence plate reader using excitation and emission wavelengths of 555 and 570 nm, respectively.
In the above, Min is the average of fluorescence emission of the negative controls (substrate only), Max the average fluorescence emission from the positive controls (enzyme + substrate), and Test the emission from the assays in the presence of compounds (enzyme + compound + substrates). […] […] The IC50 of each compound was determined using Equation (2): (2) IC50= Vmax/(1+ (I/IC50)^n)
In the above, n measures cooperativity, with n > 1 indicating synergistic binding of more than a single molecule of the compound.
To identify apPOL inhibitors we utilised our previously developed high-throughput DNA polymerase assay. The HT assay is based on a molecular beacon DNA template that forms a stem-loop with a Cy3 dye and the Black Hole Quencher on the 3′ and 5′ ends of the DNA, respectively. DNA polymerase activity extends an annealed primer through the stem region, displacing the fluorophore from the quencher, thereby increasing its fluorescence (Figure 1(A)). The assay accurately recapitulates the kinetic behaviour of apPOL, as measured through more conventional low-throughput gel-based assays. The Z′ factor for the assay described here was 0.9 across all plates (data not shown).
Figure 1. High-throughput screening. (A) The fluorescent-based DNA polymerase assay used to screen the compound libraries. The DNA template strand is a hairpin loop with a primer annealed to the loop. The 3’ end of the primer is 11 bases away from the 6 bp duplex. Strand displacement activity of the DNA polymerase separates the Cy3 dye from the Black hole quencher leading to an increase in fluorescent signal. (B) The high-throughput assay workflow. The DNA polymerase is incubated with […] compound for 10 min prior to addition of the hairpin substrate. The reaction is quenched at 3 different time points and the fluorescent signal is measured and % inhibition is determined using the provided equation.

P. falciparum apicoplast DNA polymerase (Pf-apPOL), sequence (Q8ILY1 entry or part of it): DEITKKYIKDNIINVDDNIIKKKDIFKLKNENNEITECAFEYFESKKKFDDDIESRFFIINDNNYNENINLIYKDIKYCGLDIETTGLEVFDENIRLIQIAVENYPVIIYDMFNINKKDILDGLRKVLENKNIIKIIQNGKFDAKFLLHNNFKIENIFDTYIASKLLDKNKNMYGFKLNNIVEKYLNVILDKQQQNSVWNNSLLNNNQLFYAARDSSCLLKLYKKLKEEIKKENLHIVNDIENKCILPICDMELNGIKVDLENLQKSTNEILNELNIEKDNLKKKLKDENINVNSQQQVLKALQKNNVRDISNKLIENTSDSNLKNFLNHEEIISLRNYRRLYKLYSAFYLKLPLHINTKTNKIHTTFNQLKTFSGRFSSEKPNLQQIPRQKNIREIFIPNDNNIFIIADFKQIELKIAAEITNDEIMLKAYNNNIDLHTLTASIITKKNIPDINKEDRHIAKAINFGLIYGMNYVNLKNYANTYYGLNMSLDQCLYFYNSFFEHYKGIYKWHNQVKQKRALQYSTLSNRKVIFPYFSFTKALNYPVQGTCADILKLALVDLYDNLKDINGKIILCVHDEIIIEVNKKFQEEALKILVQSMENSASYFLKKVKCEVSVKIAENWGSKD

O=[N+]([O-])c1ccc(SCc2ccco2)c2cccnc12 [KU0034480]
% inhibition Apo pol 10' (DRC-1; concentration 2.5; 10'): 15.1764%
% inhibition Apol 90' (DRC-1; concentration 2.5; 90'): 4.148%
% inhibition apPOL 180' (DRC-1; concentration 2.5; 180'): -3.317%
% inhibition Apo pol 10' (DRC-1; concentration 5; 10'): 32.9023%
% inhibition Apol 90' (DRC-1; concentration 5; 90'): 16.0357%
% inhibition apPOL 180' (DRC-1; concentration 5; 180'): 6.603%
% inhibition Apo pol 10' (DRC-1; concentration 10; 10'): 55.3292%
% inhibition Apol 90' (DRC-1; concentration 10; 90'): 36.0729%
% inhibition apPOL 180' (DRC-1; concentration 10; 180'): 23.8373%
% inhibition Apo pol 10' (DRC-1; concentration 20; 10'): 73.1419%
% inhibition Apol 90' (DRC-1; concentration 20; 90'): 49.2841%
% inhibition apPOL 180' (DRC-1; concentration 20; 180'): 26.1748%
% inhibition Apo pol 10' (DRC-1; concentration 40; 10'): 89.7276%
% inhibition Apol 90' (DRC-1; concentration 40; 90'): 77.8644%
% inhibition apPOL 180' (DRC-1; concentration 40; 180'): 65.2989%
% inhibition Apo pol 10' (DRC-1; concentration 80 (unit not given); 10'): 92.5619%
% inhibition Apol 90' (DRC-1; concentration 80; 90'): 91.6594%
% inhibition apPOL 180' (DRC-1; concentration 80; 180'): 89.7624%
% inhibition Apo pol 5' (DRC-2; 5'; concentration 2.5): 33%
% inhibition Apo pol 5' (DRC-2; 5'; concentration 5): 33%
% inhibition Apol 40' (DRC-2; 40'; concentration 5): 33%
% inhibition ApPOL 90' (DRC-2; 90'; concentration 40): 75%
% inhibition apPOL 180' (DRC-2; 180'; concentration 40): 75%
% inhibition apPOL 180' (DRC-2; 180'; concentration 80): 75%
% inhibition Apo pol 5' (DRC-2; concentration 2.5; 5'): 33%
% inhibition Apol 40' (DRC-2; concentration 2.5; 40'): 40%
% inhibition ApPOL 90' (DRC-2; concentration 2.5; 90'): 36%
% inhibition apPOL 180' (DRC-2; concentration 2.5; 180'): 26%
% inhibition Apo pol 5' (DRC-2; concentration 5; 5'): 33%
% inhibition Apol 40' (DRC-2; concentration 5; 40'): 33%
% inhibition ApPOL 90' (DRC-2; concentration 5; 90'): 29%
% inhibition apPOL 180' (DRC-2; concentration 5; 180'): 16%
% inhibition Apo pol 5' (DRC-2; concentration 10; 5'): 38%
% inhibition Apol 40' (DRC-2; concentration 10; 40'): 39%
% inhibition ApPOL 90' (DRC-2; concentration 10; 90'): 35%
% inhibition apPOL 180' (DRC-2; concentration 10; 180'): 22%
% inhibition Apo pol 5' (DRC-2; concentration 20; 5'): 47%
% inhibition Apol 40' (DRC-2; concentration 20; 40'): 63%
% inhibition ApPOL 90' (DRC-2; concentration 20; 90'): 62%
% inhibition apPOL 180' (DRC-2; concentration 20; 180'): 53%
% inhibition Apo pol 5' (DRC-2; concentration 40; 5'): 48%
% inhibition Apol 40' (DRC-2; concentration 40; 40'): 72%
% inhibition ApPOL 90' (DRC-2; concentration 40; 90'): 75%
% inhibition apPOL 180' (DRC-2; concentration 40; 180'): 75%
% inhibition Apo pol 5' (DRC-2; concentration 80; 5'): 13%
% inhibition Apol 40' (DRC-2; concentration 80; 40'): 57%
% inhibition ApPOL 90' (DRC-2; concentration 80; 90'): 66%
% inhibition apPOL 180' (DRC-2; concentration 80; 180'): 75%
DNA Pol (primary screen value of the 186 hits; unit not given; 90 min, 10 µM): 42
DNA Pol (primary screen value; head prints only 'DNA Pol'; 90 min, 10 µM): 42

Cc1ccc(CNC(=O)c2cnn3c(O)cc(CSc4ccc(Cl)cc4)nc23)cc1 [Molecule 99, Cc1ccc(cc1)CNC(=O)c1cnn2c1nc(CSc1ccc(cc1)Cl)cc2O]
DNA Pol ('DNA Pol' of the 186 hits list (screen value); 90 min, 10 µM): 67
% inhibition Apo pol 10' (DRC-1; 10'; conc 2.5): 17.7402%
% inhibition Apo pol 10' (DRC-1; 10'; conc 5): 14.3%
% inhibition Apo pol 10' (DRC-1; 10'; conc 10): 59.9515%
% inhibition Apo pol 10' (DRC-1; 10'; conc 20): 87.9776%
% inhibition Apo pol 10' (DRC-1; 10'; conc 40): 95.4401%
% inhibition Apo pol 10' (DRC-1; 10'; conc 80): 98.3006%
% inhibition Apol 90' (DRC-1; 90'; conc 2.5): 16.0319%
% inhibition Apol 90' (DRC-1; 90'; conc 5): 10.3916%
% inhibition Apol 90' (DRC-1; 90'; conc 10): 57.1077%
% inhibition Apol 90' (DRC-1; 90'; conc 20): 85.3091%
% inhibition Apol 90' (DRC-1; 90'; conc 40): 92.0772%
% inhibition Apol 90' (DRC-1; 90'; conc 80): 96.0616%
% inhibition apPOL 180' (DRC-1; 180'; conc 2.5): 7.151%
% inhibition apPOL 180' (DRC-1; 180'; conc 5): 1.596%
% inhibition apPOL 180' (DRC-1; 180'; conc 10): 45.1863%
% inhibition apPOL 180' (DRC-1; 180'; conc 20): 80.2247%
% inhibition apPOL 180' (DRC-1; 180'; conc 40): 89.0926%
% inhibition apPOL 180' (DRC-1; 180'; conc 80): 94.6304%
% inhibition Apo pol 5' (DRC-2; 5'; conc 2.5): 29%
% inhibition Apo pol 5' (DRC-2; 5'; conc 5): 42%
% inhibition Apo pol 5' (DRC-2; 5'; conc 10): 44%
% inhibition Apo pol 5' (DRC-2; 5'; conc 20): 58%
% inhibition Apo pol 5' (DRC-2; 5'; conc 40): 67%
% inhibition Apo pol 5' (DRC-2; 5'; conc 80): 68%
% inhibition Apo pol 5' (DRC-2; 5'; concentration 80): 68%
% inhibition Apol 40' (DRC-2; 40'; conc 2.5): 32%
% inhibition Apol 40' (DRC-2; 40'; conc 5): 49%
% inhibition Apol 40' (DRC-2; 40'; conc 10): 50%
% inhibition Apol 40' (DRC-2; 40'; conc 20): 68%
% inhibition Apol 40' (DRC-2; 40'; conc 40): 78%
% inhibition Apol 40' (DRC-2; 40'; conc 80): 81%
% inhibition Apol 40' (DRC-2; 40'; concentration 5): 49%
% inhibition Apol 40' (DRC-2; 40'; concentration 20): 68%
% inhibition ApPOL 90' (DRC-2; 90'; conc 2.5): 31%
% inhibition ApPOL 90' (DRC-2; 90'; conc 5): 49%
% inhibition ApPOL 90' (DRC-2; 90'; conc 10): 49%
% inhibition ApPOL 90' (DRC-2; 90'; conc 20): 69%
% inhibition ApPOL 90' (DRC-2; 90'; conc 40): 80%
% inhibition ApPOL 90' (DRC-2; 90'; conc 80): 84%
% inhibition ApPOL 90' (DRC-2; 90'; concentration 5): 49%
% inhibition ApPOL 90' (DRC-2; 90'; concentration 10): 49%
% inhibition ApPOL 90' (DRC-2; 90'; concentration 40): 80%
% inhibition apPOL 180' (DRC-2; 180'; conc 2.5): 25%
% inhibition apPOL 180' (DRC-2; 180'; conc 5): 40%
% inhibition apPOL 180' (DRC-2; 180'; conc 10): 41%
% inhibition apPOL 180' (DRC-2; 180'; conc 20): 66%
% inhibition apPOL 180' (DRC-2; 180'; conc 40): 80%
% inhibition apPOL 180' (DRC-2; 180'; conc 80): 86%
% inhibition apPOL 180' (DRC-2; 180'; concentration 40): 80%
DNA Pol (primary screen value, "DNA Pol"; 90 min, 10 µM): 67
